From the CheMixHub ionic liquid set

Test: xn = mol fraction of the nth substance listed

CC(=O)[O-].Cn1cc[nH+]c1 + CC(=O)[O-].C[NH+]1CCCC1
Details | viscosity [mPa·s]
298.15 K, 100 kPa, x1 = 1 | 6.22

CCOS(=O)(=O)[O-].CC[n+]1ccn(C)c1 + OCC(O)CO
100 kPa
Details | electrical conductivity [S/m] | viscosity [mPa·s]
298.15 K, x1 = 0.002 | 0.000368 | –
298.15 K, x1 = 0.004 | 0.00065 | –
298.15 K, x1 = 0.012 | 0.00204 | –
298.15 K, x2 = 0.123 | 0.396 | 89.1
298.15 K, x2 = 0.601 | 0.248 | 91.5
298.15 K, x2 = 0.98 | 0.00333 | –
303.15 K, x2 = 0.264 | – | 65
303.15 K, x2 = 0.5 | – | 63.7
303.15 K, x2 = 0.98 | – | 494
313.15 K, x1 = 0.002 | 0.00114 | 279.6
313.15 K, x1 = 0.004 | 0.002 | 274.6
313.15 K, x2 = 0.958 | 0.0222 | 199

CC[N+]1(C)CCCC1.COP(=O)([O-])OC + CCO
100 kPa
Details | viscosity [mPa·s]
293.15 K, x1 = 0.0534 | 2.2
293.15 K, x1 = 0.1535 | 5.03
298.15 K, x1 = 0.1535 | 4.5
298.15 K, x1 = 0.306 | 11.71
303.15 K, x1 = 0.1535 | 4.05
303.15 K, x1 = 1 | 123.5
308.15 K, x1 = 0.5052 | 20.8
308.15 K, x1 = 0.6938 | 40.6
308.15 K, x1 = 1 | 93.5
318.15 K, x1 = 0.1054 | 2.13
323.15 K, x1 = 0.0534 | 1.37
323.15 K, x1 = 0.1535 | 2.82
323.15 K, x1 = 0.2015 | 3.64
323.15 K, x1 = 0.6938 | 22.8
323.15 K, x1 = 0.8049 | 30.6
328.15 K, x1 = 0.1054 | 1.84
328.15 K, x1 = 0.2015 | 3.34
328.15 K, x1 = 0.6022 | 14.74
328.15 K, x1 = 0.8049 | 24.8
333.15 K, x1 = 0.2015 | 3.05
338.15 K, x1 = 0.0534 | 1.1
338.15 K, x1 = 0.9073 | 20.5
338.15 K, x1 = 1 | 24

CC(=O)[O-].CN1CCCN2CCC[NH+]=C12 + O
101.3 kPa
Details | viscosity [mPa·s]
278.2 K, x1 = 0.405 | 1800
283.2 K, x1 = 0.103 | 33
283.2 K, x1 = 0.206 | 204
283.2 K, x1 = 0.494 | 1496
283.2 K, x1 = 0.604 | 1825
293.2 K, x1 = 0.405 | 378
298.2 K, x1 = 0.301 | 144.9
298.2 K, x1 = 0.494 | 339.1
303.2 K, x1 = 0.301 | 99.8
303.2 K, x1 = 0.604 | 259.2
308.2 K, x1 = 0.206 | 32.5
308.2 K, x1 = 0.301 | 70.9
313.2 K, x1 = 0.301 | 51.8
313.2 K, x1 = 0.494 | 109
318.2 K, x1 = 0.301 | 39.02
318.2 K, x1 = 0.494 | 79.4
323.2 K, x1 = 0.604 | 66.33
333.2 K, x1 = 0.206 | 10.12
338.2 K, x1 = 0.494 | 28.19
343.2 K, x1 = 0.103 | 2.76
353.2 K, x1 = 0.301 | 8.98
358.2 K, x1 = 0.103 | 1.97
358.2 K, x1 = 0.206 | 4.58
358.2 K, x1 = 0.604 | 14.29
363.2 K, x1 = 0.604 | 12.16
368.2 K, x1 = 0.103 | 1.62
368.2 K, x1 = 0.604 | 10.46
373.2 K, x1 = 0.103 | 1.5
373.2 K, x1 = 0.301 | 5.14
373.2 K, x1 = 0.604 | 9.11

CC[n+]1ccn(CCOC)c1.N#C[S-] + CCCO
viscosity [mPa·s], 100 kPa
Details | x1 = 0.1001 | x1 = 0.2 | x1 = 0.3001 | x1 = 0.4001 | x1 = 0.5001 | x1 = 0.5719 | x1 = 0.701 | x1 = 0.7997 | x1 = 0.8987 | x1 = 1
288.15 K | 3.83 | 5.71 | 8.65 | 14.3 | 20 | 28.2 | 39.1 | 55.7 | 71.5 | 93.1
293.15 K | 3.38 | 4.99 | 7.53 | 12.15 | 16.78 | 23.3 | 31.8 | 44.1 | 56.7 | 70.8
298.15 K | 2.99 | 4.4 | 6.62 | 10.43 | 13.84 | 19.7 | 26.2 | 35.7 | 45.6 | 55.8
303.15 K | 2.66 | 3.94 | 5.88 | 9.06 | 11.68 | 16.75 | 21.9 | 29.3 | 37.4 | 44.3
308.15 K | 2.39 | 3.52 | 5.25 | 7.95 | 10.04 | 13.92 | 19.2 | 24.4 | 31.1 | 36
313.15 K | 2.15 | 3.16 | 4.72 | 7.03 | 8.8 | 11.81 | 16.05 | 20.6 | 26 | 29.7
318.15 K | 1.94 | 2.84 | 4.24 | 6.22 | 7.8 | 10.16 | 13.47 | 17.99 | 22 | 24.9

CCOS(=O)(=O)[O-].CC[n+]1ccn(C)c1 + O=C([O-])c1ccccc1.[Na+] + O
viscosity [mPa·s], 101.3 kPa
Details | 293.15 K | 298.15 K | 303.15 K | 308.15 K | 313.15 K
x2 = 0, x1 = 0.001795 | 1.073 | 0.96 | 0.845 | 0.751 | 0.679
x2 = 0, x1 = 0.002698 | 1.107 | 0.987 | 0.876 | 0.788 | 0.709
x2 = 0, x1 = 0.003589 | 1.136 | 1.016 | 0.899 | 0.811 | 0.727
